The record followed here is patent US20250042862A1, “AROMATIC HETEROCYCLIC COMPOUND AND APPLICATION THEREOF” (Shanghai Institute of Materia Medica, Chinese Academy of …, priority 2021, published 2025).

In the test the target is human recombinant LSD1 protein (Homo sapiens (Human), UniProt O60341). Kind of test: In vitro enzyme inhibition activity assay - LSD1 (Lance Ultra TR-FRET). As to conditions: all compounds tested in the form of hydrochloride. Type of test: biochemical. On the procedure: The purpose of this experiment was to test the in vitro inhibitory activity of the compounds against LSD1. The human recombinant LSD1 protein used in the experiment was purchased from Active Motif, and the enzyme level activity testing assay of LSD1 was performed using the Lance Ultra LSD1 Histone H3 Lysine 4 Demethylase Assay Kit (PerkinElmer). Tris-buffer (50 mMTris-HCl, 50 mMNaCl, 0.01% Tween-20, 1 mM DTT, 10 μM FAD, 10% glycerol, pH 9.0) was first prepared, and after preparation, the LSD1 fractions required for test were placed in this buffer and incubated for one hour at room temperature; the fractions included 4 μL of substrate solution ([…] Bio-H3K4me2, 1-24aa), 4 μL of enzyme solution (4 nM LSD1), and 2 μL of inhibitor in a 384-well microplate. After these operations, another 5 μL of assay mixture containing Eu-labeled H3K4me0 antibody and ULight-Streptavidin anti-biotin protein was added to the system, after which the fluorescence intensity of the components to be tested was detected by using Envision (PerkinElmer) in TR-FRET mode (excitation wavelength of 320 nm, emission wavelength of 620 nm). The test was repeated a total of three times to minimize errors. The final IC50 data were calculated by the software GraphPad Prism 5, and finally the sigmoidal dose-response (variable slope) method was used to obtain the fitted curve.
The LSD1 inhibitory activities of representative compounds of the present application as well as the positive control compound CC90011 were provided in Table 2. All compounds were tested in the form of hydrochloride.

For the compound `Cc1c(F)cccc1-c1ccc2nc(NC[C@H]3CCNC3)nc(-c3ccc(C#N)c(F)c3)c2c1` [Compound 47, (S)-2-fluoro-4-(6-(3-fluoro-2-methylphenyl)-2-((pyrrolidin-3-ylmethyl)amino)quinazolin-4-yl)benzonitrile], the half-inhibitory concentration (IC50) (as a rule, the concentration that gives 50% inhibition) fell in the range of 0.03 to 0.3 µM.
For the compound `Cc1cccc(F)c1-c1ccc2nc(NC[C@H]3CCNC3)nc(-c3ccc(C#N)c(F)c3)c2c1` [Compound 48, (S)-2-fluoro-4-(6-(2-fluoro-6-methylphenyl)-2-((pyrrolidin-3-ylmethyl)amino)quinazolin-4-yl)benzonitrile], the IC50 was at most 0.03 µM.
Take `Cc1nn(C)c(C)c1-c1ccc2nc(NC[C@H]3CCNC3)nc(-c3ccc(C#N)c(F)c3)c2c1` [Compound 49, (S)-2-fluoro-4-(2-((pyrrolidin-3-ylmethyl)amino)-6-(1,3,5-trimethyl-1H-pyrazol-4-yl)quinazolin-4-yl)benzonitrile]: the IC50 is 0.03 to 0.3 µM.
Turning to `N#Cc1ccc(-c2nc(NC[C@H]3CCNC3)nc3ccc(-c4c(F)cccc4F)cc23)cc1F` [Compound 50, (S)-4-(6-(2,6-difluorophenyl)-2-((pyrrolidin-3-ylmethyl)amino)quinazolin-4-yl)-2-fluorobenzonitrile], the IC50 was 0.03 to 0.3 µM.
For the compound `N#Cc1ccc(-c2nc(NC[C@H]3CCNC3)nc3ccc(-c4c(Cl)cccc4Cl)cc23)cc1F` [Compound 51, (S)-4-(6-(2,6-dichlorophenyl)-2-((pyrrolidin-3-ylmethyl)amino)quinazolin-4-yl)-2-fluorobenzonitrile], the IC50 was at most 0.03 µM.
The figure for `N#Cc1ccc(-c2nc(NC[C@H]3CCNC3)nc3ccc(-c4c(Cl)cccc4C(F)(F)F)cc23)cc1F` [Compound 52] is 0.03 to 0.3 µM; for `Cc1cccc(Cl)c1-c1ccc2nc(NC[C@H]3CCNC3)nc(-c3ccc(C#N)c(F)c3)c2c1` [Compound 53] it is at most 0.03 µM.
In the case of `N#Cc1ccc(-c2nc(NC[C@H]3CCNC3)nc3ccc(-c4c(F)cccc4C(F)(F)F)cc23)cc1F` [Compound 54, (S)-4-(6-(2-fluoro-6-(trifluoromethylphenyl)-2-(pyrrolidin-3-ylmethyl)amino)quinazolin-4-yl)-2-fluorobenzonitrile] it was at most 0.03 µM.
In the case of `N#Cc1ccc(-c2nc(NC[C@H]3CCNC3)nc3ccc(-c4c(F)cccc4Cl)cc23)cc1F` [Compound 55] it was at most 0.03 µM; in that of `N#Cc1ccc(-c2nc(NC[C@H]3CCNC3)nc3ccc(-c4cc(F)ccc4C(F)(F)F)cc23)cc1F` [Compound 56, (S)-4-(6-(5-fluoro-2-(trifluoromethyl)-2-(pyrrolidin-3-ylmethyl)amino)quinazolin-4-yl)-2-fluorobenzonitrile], 0.03 to 0.3 µM.
Take `N#Cc1ccc(-c2nc(NC[C@H]3CCNC3)nc3ccc(-c4cccc(F)c4C(F)(F)F)cc23)cc1F` [Compound 57, (S)-4-(6-(3-fluoro-2-(trifluoromethylphenyl)-2-(pyrrolidin-3-ylmethyl)amino)quinazolin-4-yl)-2-fluorobenzonitrile]: the IC50 is at most 0.03 µM.
In the case of `Cc1cccc(-c2ccc3nc(NC[C@H]4CCNC4)nc(-c4ccc(C#N)c(F)c4)c3c2)c1C(F)(F)F` [Compound 59, (S)-2-fluoro-4-(6-(3-methyl-2-(trifluoromethyl)phenyl)-2-((pyrrolidin-3-ylmethyl)amino)quinazolin-4-yl)benzonitrile] it was 0.03 to 0.3 µM; in that of `N#Cc1ccc(-c2nc(NC[C@H]3CCNC3)nc3ccc(-c4c(F)ccc(O)c4F)cc23)cc1F` [Compound 60], 0.03 to 0.3 µM; in that of `N#Cc1ccc(-c2nc(NC[C@H]3CCNC3)nc3ccc(-c4cccc(O)c4F)cc23)cc1F` [Compound 61, (S)-2-fluoro-4-(6-(2-fluoro-3-hydroxyphenyl)-2-((pyrrolidin-3-ylmethyl)amino)quinazolin-4-yl)benzonitrile], 0.03 to 0.3 µM.
For `CC1(N)CCN(c2nc(-c3ccc(C#N)c(F)c3)c3cc(-c4c(F)cccc4C(F)(F)F)ccc3n2)CC1` [Compound 63, 4-(2-(4-Amino-4-methylpiperidin-1-yl)-6-(2-fluoro-6-(trifluoromethyl)phenyl)quinazolin-4-yl)-2-fluorobenzonitrile], the IC50 was at most 0.03 µM.
As to `N#Cc1ccc(-c2nc(N3CC4C(N)C4C3)nc3ccc(-c4c(F)cccc4C(F)(F)F)cc23)cc1F` (stereo not drawn) [Compound 65, 4-(2-(6-Amino-3-azabicyclo[3.1.0]hexan-3-yl)-6-(2-fluoro-6-(trifluoromethyl)phenyl)quinazolin-4-yl)-2-fluorobenzonitrile], the IC50 was in the range of 0.03 to 0.3 µM.
In the case of `CNC1CCN(c2nc(-c3ccc(C#N)c(F)c3)c3cc(-c4c(F)cccc4C(F)(F)F)ccc3n2)CC1` [Compound 66, 2-Fluoro-4-(6-(2-fluoro-6-(trifluoromethyl)phenyl)-2-(4-(methylamino)piperidin-1-yl)quinazolin-4-yl)benzonitrile], the IC50 was at most 0.03 µM.
In the case of `N#Cc1ccc(-c2nc(N3CC[C@H](N)[C@H](F)C3)nc3ccc(-c4c(F)cccc4C(F)(F)F)cc23)cc1F` [Compound 67, 4-(2-((3R,4S)-4-amino-3-fluoropiperidin-1-yl)-6-(2-fluoro-6-(trifluoromethyl)phenyl)quinazolin-4-yl)-2-fluorobenzonitrile] it was at most 0.03 µM; in that of `C[C@@H]1CN(c2nc(-c3ccc(C#N)c(F)c3)c3cc(-c4c(F)cccc4C(F)(F)F)ccc3n2)CC[C@H]1N` [Compound 68, 4-(2-((3R,4R)-4-amino-3-methylpiperidin-1-yl)-6-(2-fluoro-6-(trifluoromethyl)phenyl)quinazolin-4-yl)-2-fluorobenzonitrile], at most 0.03 µM.
As to `N#Cc1ccc(-c2nc(N3C4CCC3CC(N)C4)nc3ccc(-c4c(F)cccc4C(F)(F)F)cc23)cc1F` (stereo not drawn) [Compound 69, 4-(2-(3-amino-8-azabicyclo[3.2.1]octan-8-yl)-6-(2-fluoro-6-(trifluoromethyl)phenyl)quinazolin-4-yl)-2-fluorobenzonitrile], the IC50 is at most 0.03 µM.
In the case of `N#Cc1ccc(-c2nc(N3CCCC(N)C3)nc3ccc(-c4c(F)cccc4C(F)(F)F)cc23)cc1F` (stereo not drawn) [Compound 70, 4-(2-(3-aminopiperidin-1-yl)-6-(2-fluoro-6-(trifluoromethyl)phenyl)quinazolin-4-yl)-2-fluorobenzonitrile], the IC50 is at most 0.03 µM.
`CC1(C)CN(c2nc(-c3ccc(C#N)c(F)c3)c3cc(-c4c(F)cccc4C(F)(F)F)ccc3n2)CCC1N` (stereo not drawn) [Compound 71, 4-(2-(4-amino-3,3-dimethylpiperidin-1-yl)-6-(2-fluoro-6-(trifluoromethyl)phenyl)quinazolin-4-yl)-2-fluorobenzonitrile]: the half-maximal inhibitory concentration (IC50) was at most 0.03 µM.
For the compound `N#Cc1ccc(-c2nc(N3CCCC(N)CC3)nc3ccc(-c4c(F)cccc4C(F)(F)F)cc23)cc1F` (stereo not drawn) [Compound 72, 4-(2-(4-aminoazepan-1-yl)-6-(2-fluoro-6-(trifluoromethyl)phenyl)quinazolin-4-yl)-2-fluorobenzonitrile], the half-maximal inhibitory concentration (IC50) is at most 0.03 µM.
In the case of `CN(C)C1CCN(c2nc(-c3ccc(C#N)c(F)c3)c3cc(-c4c(F)cccc4C(F)(F)F)ccc3n2)CC1` [Compound 73, 4-(2-(4-(Dimethylamino)piperidin-1-yl)-6-(2-fluoro-6-(trifluoromethyl)phenyl)quinazolin-4-yl)-2-fluorobenzonitrile], the IC50 was at most 0.03 µM.
